According to patent US12268901B2, “Targeting cell tropism receptors to inhibit cytomegalovirus infection” (priority 2017, dated 2025):
“Also recorded” adds a separate entry of the source.

Key:
Format in all cases: cell-based, Human cytomegalovirus (HCMV)
[1] = system: TB40E virus infection of epithelial cell lines; assay: Peptide blocking assay, infection of several epithelial cell lines (percent GFP positive cells); conditions: Peptide 1 100 μg/ml, MOI=2.0, 2 dpi
Description: FIG. 10. […] Peptide 1 (100 μg/ml), or DMSO alone was preincubated with TB40E virus, followed by infection of the indicated epithelial cell lines (MOI=2.0). Cells were fixed and imaged for GFP and DNA at 2 dpi. […] Values indicate the mean percentage of infected cells of three experiments±SD. **p<0.01; ***p<0.001.
(§1) The noted synthetic peptides (100 ug/ml each or as described) were mixed with TB40E-GFP virus (1.2×10^6 PFU) and incubated at 37° C. for 2 h by rocking. The resulting samples were then subjected to the virus binding or infection assay.

[2] = system: HCMV infection of ARPE19 epithelial cells; assay: Peptide blocking assay, infection of ARPE19 cells (percent GFP or IE positive cells); conditions: peptide 1 100 μg/ml
Description: (§2) (A) Different amounts of peptide 1 were preincubated with TB40E-GFP virus and the mixture applied to ARPE19. Viral DNA levels were quantified by qPCR. (B) The results in (A) are presented as the relative amount of viral DNA relative to the DMSO control. (C) TB40E-GFP virus was preincubated with peptide 1 (100 μg/ml), or DMSO, followed by infection of ARPE19 cells (MOI=2.0). Cells were imaged for GFP expression at 2 dpi (D2) and 7 dpi (D7). (D) TB40E-GFP or BADrUL131-GFP virus, both expressing PC, were preincubated with peptide 1 (100 μg/ml), or DMSO prior to infection of ARPE19 cells (MOI=2.0). Cells were fixed and imaged for GFP at 2 dpi. All data represent the mean of n=3 experiments+/−SD. (E) Culture media supernatants from (C) were harvested on the indicated dpi and assayed for infectious virus by plaque assay. Values indicate the mean percent infected cells of 3 independent experiments±SD. ****p<0.0001.
(§3) FIG. 9. […] TB40E-GFP encoding the viral PC or AD169 lacking PC were preincubated with peptide 1 (100 μg/ml) and then infected on ARPE19 epithelial cells or HEL fibroblasts (MOI=2.0). Cells were fixed, permeabilized, stained for DNA, immunostained for anti-immediate early protein (IE) and imaged. […] Values indicate the mean percentage of infected cells of n=3 experiments±SD. **p<0.01; ***p<0.001.
FIG. 11. Each of the short peptides (aa sequences listed in Table 4; 150 uM), Peptide 1 (32.6 μM), or DMSO alone was preincubated with TB40E virus, followed by infection of ARPE19 cell lines (MOI=2.0). Cells were fixed and imaged for GFP and DNA at 2 dpi. Quantitation data indicating the percent GFP positive cells.
(§4) Live cell images: Phase and GFP signal images were captured on a Zeiss microscope (Zeiss AxioObserver Z1) at 10× magnification. Fixed cell images: cells were washed with PBS (Life Technologies) and fixed with 4% formalin in PBS (Sigma). DNA was stained with Hoechst 33342 dye (Life Technologies). The fixed cells were imaged using an Image Xpress Micro (IXM, Molecular Devices) at 4× magnification. Images were analyzed with MetaXpress imaging software (Molecular Devices) to determine the total cells per well and the percentage of infected cells (GFP positive) in each well. For IE immunostaining: fixed cells were permeabilized with 0.2% Triton X-100 (Sigma) in PBS. Blocking was performed with 1% BSA (Calbiochem, 2930) in PBS with 0.3M glycine (Sigma). Cells were then incubated in antibody targeting the major IE proteins (IE, EMD Millipore, MAB8131) diluted in 1% BSA in PBS. Cells were then incubated in secondary antibody (Texas Red-conjugated goat anti-mouse IgG2A, Southern Biotech, 1080-07) in PBS containing 1% BSA.
At 2 dpi with HCMV TB40E-GFP virus at the indicated MOI, ARPE19 cells were fixed with 4% formaldehyde and nuclei stained with Hoechst 33342. ARPE19 cells were imaged on an automated IXM scanning microscope. Numbers of infected cells were determined by calculating the percent GFP positive cells using MetaXpress software.
as §1

[3] = system: HCMV infection of HEL fibroblasts; assay: Peptide blocking assay, infection of HEL fibroblasts (percent IE positive cells); conditions: peptide 1 100 μg/ml, MOI=2.0
Description: as §3
as §4, with “Cells were then incubated in secondary antibody (Texas Red-conjugated goat anti-mouse IgG2A, Southern Biotech, 1080-07) in PBS containing 1% BSA.” left out

[4] = system: TB40E-GFP infection of ARPE19 cells; assay: cAMP/PKA signaling pathway modulation, TB40E-GFP infection; conditions: H-89 20 μM, SQ22536 150 μM, FSK 20 μM, 2 h prior to infection, MOI=4.0, 48 hpi
Description: (§5) FIGS. 7A-C. HCMV receptor engagement and cAMP/PKA signaling. ARPE19 or OR14I1 knock down cells were pretreated with phosphokinase A (PKA) inhibitor H-89 (20 μM), adenylate cyclase antagonist, SQ22536 (150 μM), or adenylate cyclase activator, forskolin (FSK; 20 μM) for 2 h prior to TB40E-GFP infection (MOI=4.0). Cells were fixed at 48 hpi and images taken.
H-89, SQ22536 and Foskolin were purchased from Sigma-Aldrich Chemicals. Wild type ARPE19 or ARPE19 cells expressing the indicated shRNAs were treated with protein kinase A (PKA) inhibitor H-89 (20 μM), adenylate cyclase antagonist, SQ22536 (150 μM), or adenylate cyclase activator, forskolin (FSK; 20 μM) for 2 h prior to infection with TB40E-GFP (MOI=2.0). After 2 h, the medium was then replaced by the standard medium that also contained the noted small molecules. Images were taken at 2 dpi.
as §5, with “HCMV” for “FIGS. 7A-C. HCMV”, “signaling was also evaluated.” for “signaling.”, “(MOI=4.0).” for “(MOI=4.0). Cells were fixed at 48 hpi and images taken.”

[5] = system: HCMV TB40E-GFP replication in ARPE19 cells; assay: Plaque assay of culture supernatants for infectious virus; conditions: peptide 1 100 μg/ml, ARPE19, MOI=2.0, supernatants at indicated dpi
Description: as §2

With “MDNLTKVTEFLLMEFSGIWELQVLHA (N-terminal fragment of OR14I1) [Peptide 1, synthetic peptide representing the N-terminus of OR14I1, position 1-26]” the “PC+ virus infection of multiple epithelial cell lines (percent GFP positive cells)” value [1] was “prevented PC+ virus infection; also recorded: inhibits HCMV infection of several epithelial cell lines”, the “anti-viral action versus presence of viral PC” value ([2]; TB40E-GFP encoding PC or AD169 lacking PC, MOI=2.0) was “dependent on the presence of the PC” and the “anti-viral action versus viral strain” value ([2]; TB40E-GFP or BADrUL131-GFP, MOI=2.0, 2 dpi) was “independent of viral strain”. The “HCMV infection of ARPE19 epithelial cells (percent IE positive cells)” value ([2]; TB40E-GFP, MOI=2.0) was “blocks HCMV infection of ARPE19 epithelial cells”, the “PC+ HCMV infection of fibroblasts” value [3] was “modest effect” and the “infectivity of TB40E-GFP in ARPE19 epithelial cells” value [4] was “reduced infectivity significantly”. For the same sequence, the “long-term replication of HCMV (infectious virus by plaque assay)” value [5] was “compromised the long-term replication of HCMV”.
